Data reported in US4604397A, “Certain benzo-(pyrano and thiopyrano)-pyridines, useful as CNS agents” (Ciba-Geigy Corporation, priority 1985, dated 1986).
Structures can show the parent of a compound that is named as a salt.

Columns and labels:
[1] = target: presynaptic dopamine receptor; assay: dopamine binding assay in vitro: displacement of 3H-ADTN from calf-caudate nucleus membranes; set-up: species or system calf (bovine); conditions: 0.2 nM 3H-ADTN, 60 minutes at 25° C.
Procedure: The presynaptic dopamine receptor binding properties indicative of the presynaptic dopamine receptor regulatory, e.g. agonistic activity, of the compounds of the invention are determined in the dopamine binding assay in vitro by the following method involving the displacement of the dopamine agonist 2-amino-6,7-dihydroxy-1,2,3,4-tetrahydronaphthalene (^3 H-ADTN) from membranes from calf-caudate nucleus. [Eur. J. Pharmacol. 55, 137 (1979)].
Bovine brain tissue is homogenized in 50 volumes (based on original tissue weight) of 50 mM Tris-HCl buffer, pH 7.7 at 25° C., using a Brinkman Polytron, setting 6 for 20 seconds. The homogenate is centrifuged at 50,000×g for 10 minutes. The pellet is resuspended in 50 volumes of 50 mM Tris-HCl buffer, pH 7.7 and recentrifuged. The final pellet is resuspended in 200 volumes of incubation media containing: 50 mM Tris-HCl buffer, pH 7.7; 0.1% ascorbic acid; 0.001 mM pargyline; 120 mM NaCl; 5 mM KCl, 2 mM CaCl2 and 1 mM MgCl2.
In the binding assay, triplicate 2 ml samples (equivalent to 5 mg/ml original tissue) of the membrane suspension are incubated for 60 minutes at 25° C. with 0.2 nM ^3 H-ADTN without or in the presence of various concentrations of test compound in solvent. The reaction is terminated by filtering with 5 ml of cold 50 mM Tris-HCl buffer pH 7.7. The filters are placed in scintillation vials with 5 ml of scintillation solution, disrupted by vigorous mechanical shaking for 90 minutes, and counted for radioactivity.
The IC50 values represent the concentration of test compounds required to inhibit the specific binding of 0.2 nM ^3 H-ADTN by 50%, and are determined graphically.

dopamine autoreceptor = assay: rat gamma-butyrolactone (GBL) model, inhibition of GBL-induced DOPA accumulation (presynaptic dopamine agonist activity); format: in vivo
Procedure: Indicative of potential neuroleptic activity of the compounds of the invention, the in-vivo presynaptic dopamine agonist activity (also called dopamine autoreceptor agonist activity) is determined in the rat gamma-butyrolactone (GBL) model by a modification of the procedure described by Walters and Roth, Naunyn Schmiedeberg's Arch. Pharmacol. 296, 5 (1976). In this model, a presynaptic dopamine agonist inhibits the GBL-induced accumulation of the dopamine precursor DOPA after pretreatment with 3-hydroxybenzylhydrazine (NSD-1015), a DOPA decarboxylase inhibitor.
Test compounds are dissolved in 0.9% saline, with sodium metabisulfite to prevent oxidation, if required. […] Dihydroxyphenylalanine (DOPA) is analyzed by High Pressure Liquid Chromatography/Electrochemistry (HPLC/EC) techniques using a Bio-analytical Systems (BAS) Model LC-150 series Liquid Chromatograph. […] Compounds are detected with an electro-chemical detector having an oxidizing potential of 0.7 volts and sensitivity setting of 20 nAmps/V. Tissue concentrations and recoveries are calculated by using the internal standard dihydroxybenzylamine (DHBA). […] Data is statistically analysed by one-way Analysis of Variance with Duncan's Multiple Comparison Test. The activity of the test compounds is determined as the percent inhibition of DOPA accumulation at a given dose. […]

[2] = system: reserpine-induced hypomotility in the rat; assay: reversal of reserpine-induced hypomotility in the rat; format: in vivo; conditions: ip
Source text: In vivo such selectivity can be determined by measurement of the degree of reversal of reserpine induced hypomotility in the rat. The relative absence of such reversal at effective doses (e.g. in the GBL model) is indicative of selective presynaptic dopamine agonist activity.

serotonin receptor [3] = target: T1, serotonin receptor (Bos taurus, UniProt F1MGM3); assay: 3H-serotonin binding assay in vitro, calf brain (caudate nuclei) membranes; conditions: 7 nM 3H-serotonin, 10 minutes at 37° C.
T1 construct: Caudate nuclei are dissected from freshly obtained calf brains; from tissue; host or cells: calf brain caudate nuclei membranes
T1 sequence (F1MGM3 1-403): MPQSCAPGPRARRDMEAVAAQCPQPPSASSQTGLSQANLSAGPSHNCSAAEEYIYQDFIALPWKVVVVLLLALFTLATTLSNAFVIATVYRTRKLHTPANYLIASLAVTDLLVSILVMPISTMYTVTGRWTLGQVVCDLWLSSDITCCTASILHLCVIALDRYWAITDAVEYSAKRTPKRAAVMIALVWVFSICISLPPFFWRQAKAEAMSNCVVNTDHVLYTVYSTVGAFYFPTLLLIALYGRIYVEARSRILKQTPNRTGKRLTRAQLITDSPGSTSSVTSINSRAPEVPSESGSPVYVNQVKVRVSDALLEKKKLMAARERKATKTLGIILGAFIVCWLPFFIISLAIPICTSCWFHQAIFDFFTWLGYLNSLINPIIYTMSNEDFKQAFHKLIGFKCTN
Procedure: The serotonin binding properties indicative of serotonin agonistic receptor regulating activity of compounds of the invention are determined in the in vitro binding assay as follows:
Membrane suspensions are prepared from calf brain and incubated with ^3 H-serotonin by a modification of the procedure described by Bennett and Snyder. Caudate nuclei are dissected from freshly obtained calf brains; they are frozen and stored at -70° C. for up to 3 months. For each binding experiment, a portion of tissue is homogenized with a Brinkmann Polytron in 50 volumes (w/v) of ice-cold 50 mM Tris-HCl (pH 7.7 at 25° C.) containing 10 mM dithiothreitol. The homogenate is centrifuged twice at 50,000×g for 10 minutes with rehomogenization of the pellet in fresh buffer between spins. The final pellet is homogenized in 100 volumes (based on original tissue weight) cold 50 mM Tris-HCl (pH 7.6 at 25° C.) containing […] pargyline, 0.1% ascorbic acid, 120 mM NaCl, 5 mM KCl, 2 mM CaCl2, 1 mM MgCl2 and 10 mM dithiothreitol. The suspension is warmed in a 37° C. bath for 10 minutes and then returned to ice.
In the binding assay, 2-ml aliquots of the final tissue suspension (equivalent to 20 mg of original wet tissue) are added to tubes (on ice) containing ^3 H-serotonin with or without test compound freshly dissolved in 0.1% ascorbic acid. The final concentration of ^3 H-serotonin is 7 nM. Test compounds are present over a wide range of concentrations, with triplicate tubes for each concentration. Tubes are incubated at 37° C. for 10 minutes and the suspensions are immediately filtered under vacuum through Whatman GF/B glass fiber filters. The filters are washed with 10 ml of cold Tris-HCl (pH 7.7 at 25° C.), placed in scintillation vials with 12 ml of scintillation solution, disrupted by vigorous mechanical shaking for 90 minutes and counted for radioactivity. The IC50 values (concentrations of test compounds required to inhibit the specific binding of 7 nM ^3 H-serotonin by 50%) are determined graphically.

serotonin receptor [4] = assay: serotonin receptor agonist activity in vivo: decrease in accumulation of 5-hydroxytryptophane in rat brain
Procedure: The serotonin receptor agonist activity is determined in vivo by measuring the decrease in the accumulation of 5-hydroxytryptophane in the brain after administration of a test compound in the rat, as described in J. Med. Chem. 21, 864 (1978).

Compound	IC50 [1] [nM]	IC50 (serotonin receptor [3]) [nM]	other results
CCCN1CCC[C@@H]2c3cc(O)ccc3OC[C@H]21.Cl (relative stereo) [trans-9-hydroxy-4-propyl-1,2,3,4a,5,10b-hexahydro-4H-[1]-benzopyrano[3,4-b]pyridine hydrochloride]	~30	–	ED50 (dopamine autoreceptor; ip, read-out: ED50 in the GBL model (dose at which DOPA accumulation is inhibited by 50%)): ~0.16 mg/kg; activity in the GBL model orally (dopamine autoreceptor; oral, dose of about 0.5 mg/kg): active; ED50 [2]: ~10 mg/kg
COc1cccc2c1OC[C@@H]1[C@@H]2CCCN1C (relative stereo) [trans-7-methoxy-4-methyl-1,2,3,4a,5,10b-hexahydro-4H-[1]-benzopyrano[3,4-b]pyridine hydrochloride]	–	~80	–
CCCCN1CCC[C@@H]2c3cccc(O)c3OC[C@H]21 (relative stereo) [trans-4-butyl-7-hydroxy-1,2,3,4a,5,10b-hexahydro-4H-[1]-benzopyran-[3,4-b]pyridine hydrochloride]	~20	–	–
COc1c(Br)ccc2c1OC[C@@H]1[C@@H]2CCCN1C.Cl (relative stereo) [trans-8-bromo-7-methoxy-4-methyl-1,2,3,4a,5,10b-hexahydro-4H-[1]-benzopyrano[3,4-b]pyridine hydrochloride]	–	~20	decrease of accumulation of 5-hydroxytryptophane in the frontoparietal cortex of rat brain (serotonin receptor [4]; 2.5 mg/kg s.c.): about 25%
CN1CCC[C@@H]2c3c(O)cccc3OC[C@H]21 (relative stereo) [trans-10-hydroxy-4-methyl-1,2,3,4a,5,10b-hexahydro-4H-[1]-benzopyrano[3,4-b]pyridine hydrochloride]	–	~400	–
Cc1ccc2c(c1O)OC[C@@H]1[C@@H]2CCCN1C.Cl (relative stereo) [trans-7-hydroxy-4,8-dimethyl-1,2,3,4a,5,10b-hexahydro-4H-[1]-benzopyrano[3,4-b]pyridine hydrochloride]	–	–	decrease of accumulation of 5-hydroxytryptophane in the frontoparietal cortex of rat brain (in words) (serotonin receptor [4]; dose of 0.1 mg/Kg, compared with about 25% decrease of the 8-bromo-7-methoxy-4-methyl compound): similarly effective
CCCN1CCC[C@@H]2c3cccc(O)c3OC[C@H]21 (relative stereo) [trans-7-hydroxy-4-propyl-1,2,3,4a,5,10b-hexahydro-4H-[1]-benzopyrano[3,4-b]pyridine hydrochloride]	~60	–	–
CCCN1CCC[C@@H]2c3c(OC)cccc3OC[C@H]21 (relative stereo) [trans-10-methoxy-4-propyl-1,2,3,4a,5,10b-hexahydro-4H-[1]-benzopyrano[3,4-b]pyridine hydrochloride]	–	~20	–
CCCN1CCC=C2c3cc(O)ccc3SCC21 (stereo not shown) [9-hydroxy-4-propyl-2,3,4a,5-tetrahydro-4H-[1]-benzothiopyrano[3,4-b]pyridine hydrochloride]	~10	–	–
